Columns and labels:
LNCaP cells [1] = assay: Effect of folic acid concentration on cell growth rate; format: cell-based, human; settings: folate level increased above physiological; FIG. 3
Text: Increasing the folate level above physiological can increase the growth rate by almost 2-fold. In cell lines that express PSMA (such as LNCaP), the same growth increase is also found if folate is provided in the form of ‘natural’ or dietary folate (e.g., polyglutamated folate) which is digested to monoglutamated folate by PSMA. The latter (monoglutamated folate) can cross the cell membrane whereas polyglutamated folate cannot. Anti-PSMA Antibody, J415, Inhibits PSMA tic Activity.

[2] = system: PSMA expression, Cwr22rv1; assay: PSMA expression (J591 labeling, FACS) after three weeks in lowered-folate media; format: cell-based, human; settings: folate lowered to 10 nM, vs standard media, FIG. 9
Procedure: (§1) According to the World Health Organization, physiological level of serum folate is 12 nmol/L. Standard tissue culture media contains approx 150× the concentration of folate found in human serum/plasma. […] FIGS. 5-11 show the PSMA expression levels of different cell lines were grown for three weeks in standard media (containing 150× physiological concentration of folate; lines 2), standard media with only 50 nM folate, or standard media with only 10 nM folate. The cells were labeled with anti-PSMA antibody J591 followed by a fluorescently labeled secondary antibody that recognizes J591. Lines 1 show the cells labeled with a negative isotype control antibody followed by the labeled secondary antibody.

[3] = system: PSMA expression, SK-RC-39; assay: as above; format: cell-based, human; settings: folate lowered to 10 nM, vs standard media, FIG. 7
Procedure: as §1

PSMA expression, LNCaP = assay: as above; format: cell-based, human; settings: folate lowered in the media, FIG. 11
Procedure: as §1

[4] = system: PSMA expression, SK-RC-06; assay: as above; format: cell-based, human; settings: folate lowered to 50 nM or less, vs standard media, FIG. 8
Procedure: as §1

[5] = system: PSMA expression, SK-RC-31; assay: as above; format: cell-based, human; settings: folate lowered to 10 nM, vs standard media, FIG. 5
Procedure: as §1

PSMA expression, PC3 = assay: as above; format: cell-based, human; settings: folate lowered to 50 nM or less, vs standard media, FIG. 10
Procedure: as §1

[6] = system: PSMA expression, SK-RC-42; assay: as above; format: cell-based, human; settings: folate lowered to 10-50 nM, vs standard media, FIG. 6
Procedure: as §1

LNCaP cells [7] = assay: Docetaxel inhibition of LNCaP cell growth at different folate concentrations (cell count); format: cell-based, human; settings: 10 or 20 μg/ml docetaxel for 72 hours, cells counted after 1 week; FIG. 12
Procedure: Docetaxel (taxotere) at concentrations of 10 or 20 μg/ml was incubated with LNCaP cells for 72 hours and at different concentrations of folate supplied in the form of folic acid from culture medium. Cells were counted after 1 week. […] The open bar is the control without treatment with docetaxel, the speckled bars are cells treated with 10 ug/ml docetaxel together with the indicated concentration of folate, and the striped bars are cells treated with 20 ug/ml docetaxel together with the indicated concentration of folate. The indicated concentrations of folate are over and above the physiological level of folate provided by the folate present in fetal calf serum (for example, 12 nm folate represents 12 nm folate above the physiological concentration). […] It is likely that decreased folate availability to cancer cells would enhance the anti-tumor effect of other cytotoxic, cytostatic and hormonal.

prostate cancer = settings: patients after developing androgen-independence; taxane-based chemotherapy; cited from earlier work

Nc1nc2ncc(CNc3ccc(C(=O)N[C@@H](CCC(=O)O)C(=O)O)cc3)nc2c(=O)[nH]1 [folate, folic acid]
Increase of growth rate (LNCaP cells [1]): ~2 fold
Increase in PSMA expression [2]: 950%
Increase in PSMA expression [3]: 250%
Upregulation of PSMA expression (in words) (PSMA expression, LNCaP): did not cause upregulation of PSMA expression
Increase in PSMA expression [4]: 225%
Increase in PSMA expression [5]: 250%
Increase in PSMA expression (PSMA expression, PC3): 400%
Increase in PSMA expression [6]: 650%

CC(=O)O[C@@]12CO[C@@H]1C[C@H](O)[C@@]1(C)C(=O)[C@H](O)C3=C(C)[C@@H](OC(=O)[C@H](O)[C@@H](NC(=O)OC(C)(C)C)c4ccccc4)C[C@@](O)([C@@H](OC(=O)c4ccccc4)[C@H]21)C3(C)C [docetaxel]
Cell killing/inhibition of growth depending on folate level (in words) (LNCaP cells [7]): decreasing folate levels increases the cell killing/inhibition of growth
Median survival (prostate cancer): 19 months

Reference: patent US20250058000A1, “Treatment of Proliferative Disorders Using Antibodies to PSMA” (Cornell University, priority 2007, published 2025)
